Measured values from ChEMBL document CHEMBL1201862, “PubChem BioAssay data set” (2004).
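Briefly, cells in 96-well plates were exposed to five compound concentrations for 48 h, and endpoints were estimated by linear interpolation. GI50: concentration for 50% inhibition of growth.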 Calls of active or inactive are those of the source. Rule as the data show it: active = GI50 up to about 1.1 µM and inactive = higher.

Key:
Assay in all cases: DTP human tumour cell line panel, 48 h
SF-539 = test system: SF-539
Malme-3M = test system: Malme-3M
A549 = test system: A549
UACC-257 = test system: UACC-257
NCI/ADR-RES = test system: NCI/ADR-RES
EKVX = test system: EKVX
786-0 = test system: 786-0
ACHN = test system: ACHN
NCI-H460 = test system: NCI-H460
UACC-62 = test system: UACC-62
TK-10 = test system: TK-10
BT-549 = test system: BT-549
HCT-116 = test system: HCT-116
OVCAR-8 = test system: OVCAR-8
MDA-MB-435 = test system: MDA-MB-435
RPMI-8226 = test system: RPMI-8226
MDA-MB-231 = test system: MDA-MB-231
HT-29 = test system: HT-29
A498 = test system: A498
PC-3 = test system: PC-3

Row | SMILES | GI50 (SF-539) | GI50 (Malme-3M) | GI50 (A549) | GI50 (UACC-257) | GI50 (NCI/ADR-RES) | GI50 (EKVX) | GI50 (786-0) | GI50 (ACHN) | GI50 (NCI-H460) | GI50 (UACC-62) | GI50 (TK-10) | GI50 (BT-549) | GI50 (HCT-116) | GI50 (OVCAR-8) | GI50 (MDA-MB-435) | GI50 (RPMI-8226) | GI50 (MDA-MB-231) | GI50 (HT-29) | GI50 (A498) | GI50 (PC-3)
1 | COc1cc(C(=O)Nc2nnc(S(N)(=O)=O)s2)cc(OC)c1OC | > 100 µM (inactive) | > 100 µM (inactive) | > 100 µM (inactive) | > 100 µM (inactive) | > 100 µM (inactive) | > 100 µM (inactive) | > 100 µM (inactive) | > 100 µM (inactive) | > 100 µM (inactive) | > 100 µM (inactive) | > 100 µM (inactive) | > 100 µM (inactive) | > 100 µM (inactive) | > 100 µM (inactive) | > 100 µM (inactive) | > 100 µM (inactive) | > 100 µM (inactive) |  |  | 
2 | N#Cc1ccc(Oc2nc3ccccc3nc2-c2ccccc2)cc1 |  | > 100 µM (inactive) |  | > 100 µM (inactive) |  | > 100 µM (inactive) | > 100 µM (inactive) | > 100 µM (inactive) | > 100 µM (inactive) | > 100 µM (inactive) | > 100 µM (inactive) | > 100 µM (inactive) | > 100 µM (inactive) |  | > 100 µM (inactive) | > 100 µM (inactive) | > 100 µM (inactive) | > 100 µM (inactive) | > 100 µM (inactive) | > 100 µM (inactive)
3 | COc1ccc(C2CC(c3ccccc3)=Nc3c(-c4ccccc4)nnn32)cc1 (stereo not given) | 85.3 µM (inactive) |  | 39.2 µM (inactive) | > 100 µM (inactive) | > 100 µM (inactive) |  | > 100 µM (inactive) | 17 µM (inactive) | > 100 µM (inactive) | 55.7 µM (inactive) |  |  | 35.5 µM (inactive) | 37.3 µM (inactive) | 77.8 µM (inactive) | 12.8 µM (inactive) | 85.1 µM (inactive) | > 100 µM (inactive) | > 100 µM (inactive) | 72.6 µM (inactive)
4 | O=C(O)CN1CCNCCN(CP(=O)(O)O)CC1 |  | 1.75 µM (inactive) | 4.89 µM (inactive) | > 33.8 µM (inactive) |  | 13.2 µM (inactive) | 4.83 µM (inactive) | > 100 µM (inactive) | 3.44 µM (inactive) | 8.69 µM (inactive) | > 37.2 µM (inactive) | > 100 µM (inactive) | 3.87 µM (inactive) |  | > 53 µM (inactive) | 5.52 µM (inactive) | > 70.1 µM (inactive) | 2.02 µM (inactive) | > 19.7 µM (inactive) | 9.73 µM (inactive)
5 | O=c1oc2ccccc2c(-c2ccc(O)cc2)c1Oc1ccccc1 | 20.7 µM (inactive) | 2.58 µM (inactive) | 22.1 µM (inactive) | 7.83 µM (inactive) |  | 15.7 µM (inactive) | 23.1 µM (inactive) | 10.2 µM (inactive) | 6.85 µM (inactive) | 5.18 µM (inactive) | 8.05 µM (inactive) | 3.33 µM (inactive) | 20 µM (inactive) |  | 22.1 µM (inactive) | 28.1 µM (inactive) | 3.17 µM (inactive) | > 52.1 µM (inactive) | 7.71 µM (inactive) | 8.49 µM (inactive)
6 | O=C(NC(C(F)(F)F)(C(F)(F)F)P(=O)(c1ccccc1)c1ccccc1)C(C(F)(F)F)C(F)(F)F | 22.8 µM (inactive) | 14.2 µM (inactive) | 34.6 µM (inactive) | 29.4 µM (inactive) | 21.6 µM (inactive) | > 100 µM (inactive) | 18.9 µM (inactive) | 16.7 µM (inactive) | 42.3 µM (inactive) | 56 µM (inactive) | 37.2 µM (inactive) |  | 18.5 µM (inactive) | 29.3 µM (inactive) | 18.7 µM (inactive) | 33.6 µM (inactive) | 24.2 µM (inactive) | 14.5 µM (inactive) | > 100 µM (inactive) | 27.8 µM (inactive)
7 | C[C@]12CCC(N3CCCC3)CC1=CC[C@@H]1[C@@H]2CC[C@]2(C)C(O)[C@H](n3ccnc3)C[C@@H]12 (stereo not given in full) | 19 µM (inactive) |  | 66.5 µM (inactive) | 38.6 µM (inactive) | > 100 µM (inactive) | > 100 µM (inactive) | 41.6 µM (inactive) | 36.7 µM (inactive) | 42.6 µM (inactive) | 32.1 µM (inactive) | > 100 µM (inactive) |  | 38.1 µM (inactive) | 61.2 µM (inactive) | 36.6 µM (inactive) | 30.8 µM (inactive) | > 100 µM (inactive) | 5.85 µM (inactive) | > 100 µM (inactive) | 36.7 µM (inactive)
8 | Cc1ccc(C(=O)N/N=C(\N=N\c2ccccc2Cl)c2ccc(N(C)C)cc2)cc1 | 21.4 µM (inactive) |  | 50.6 µM (inactive) | 27.5 µM (inactive) | 27.3 µM (inactive) | 27.2 µM (inactive) | 48.3 µM (inactive) | 13.3 µM (inactive) | 37.3 µM (inactive) | 4.55 µM (inactive) | > 100 µM (inactive) | 29.3 µM (inactive) | 29.2 µM (inactive) | 61.5 µM (inactive) | 10.5 µM (inactive) | 23.7 µM (inactive) | 52.6 µM (inactive) | 33.1 µM (inactive) |  | 49 µM (inactive)
9 | c1ccc2c(c1)SC1=Nc3sc4ccccc4[n+]3CN12 | 20.5 µM (inactive) | 10.5 µM (inactive) | 1.04 µM (active) | 30.7 µM (inactive) | 30.9 µM (inactive) | 2.15 µM (inactive) | 25.9 µM (inactive) | 32.8 µM (inactive) | 15.3 µM (inactive) | 15.5 µM (inactive) | 14.8 µM (inactive) | 22.8 µM (inactive) | 18.5 µM (inactive) | 26.4 µM (inactive) | 19.7 µM (inactive) | 21.8 µM (inactive) | 18.3 µM (inactive) | 12.6 µM (inactive) |  | 24.8 µM (inactive)
10 | CCOC(=O)Cn1nnc2ccc(Nc3nc4ccccc4nc3-c3ccccc3)cc21 | 59.6 µM (inactive) | > 100 µM (inactive) | > 100 µM (inactive) | 70.5 µM (inactive) | > 100 µM (inactive) | > 100 µM (inactive) | 32.3 µM (inactive) | > 100 µM (inactive) | 48.6 µM (inactive) | > 100 µM (inactive) | 25.4 µM (inactive) | > 100 µM (inactive) | 95.3 µM (inactive) | > 100 µM (inactive) | > 100 µM (inactive) | > 100 µM (inactive) |  | > 100 µM (inactive) | > 100 µM (inactive) | > 100 µM (inactive)
11 | Cc1nn(-c2ccccc2)c2c1N=C(C(=O)O)CC(c1ccccc1)=N2 | > 10 µM (inactive) | > 10 µM (inactive) | > 10 µM (inactive) | > 10 µM (inactive) | > 10 µM (inactive) |  | > 10 µM (inactive) | > 10 µM (inactive) |  | > 10 µM (inactive) | > 10 µM (inactive) | > 10 µM (inactive) | > 10 µM (inactive) | > 10 µM (inactive) | > 10 µM (inactive) | > 10 µM (inactive) | > 10 µM (inactive) | > 10 µM (inactive) |  | > 10 µM (inactive)
12 | C=C[C@]1(O)CCC[C@]2(C)C(=O)CCC12C (stereo not given in full) | > 100 µM (inactive) | > 100 µM (inactive) | > 100 µM (inactive) | > 100 µM (inactive) | > 100 µM (inactive) | > 100 µM (inactive) | > 100 µM (inactive) | > 100 µM (inactive) | > 100 µM (inactive) | > 100 µM (inactive) |  |  | > 100 µM (inactive) | > 100 µM (inactive) | > 100 µM (inactive) | > 100 µM (inactive) | > 100 µM (inactive) | > 100 µM (inactive) | > 100 µM (inactive) | > 100 µM (inactive)
13 | O=c1cc(-c2ccccc2F)[nH]c2cc3c(cc12)OCO3 | 0.0702 µM (active) | 0.053 µM (active) | 0.204 µM (active) | 1.2 µM (inactive) | 0.035 µM (active) |  | 0.182 µM (active) | 0.149 µM (active) | 0.107 µM (active) | 0.042 µM (active) | 2.88 µM (inactive) |  | 0.0489 µM (active) | 0.265 µM (active) | < 0.01 µM (active) | 0.0631 µM (active) | 0.29 µM (active) | 0.0942 µM (active) | 0.0724 µM (active) | 0.0495 µM (active)
14 | O=C(NNCc1ccccc1O)c1ccccc1O | 16.5 µM (inactive) | 15.1 µM (inactive) | 8.13 µM (inactive) | 29.2 µM (inactive) | 8.85 µM (inactive) | 5.89 µM (inactive) | 11 µM (inactive) | 5.12 µM (inactive) |  | 5.42 µM (inactive) | 31.4 µM (inactive) |  | 3.1 µM (inactive) | 14.4 µM (inactive) | 3.06 µM (inactive) | 3.27 µM (inactive) | > 100 µM (inactive) | 9.38 µM (inactive) | 31.4 µM (inactive) | 24.9 µM (inactive)
15 | O=S(=O)(O)CCS [MESNA] | > 100 µM (inactive) | > 100 µM (inactive) | > 100 µM (inactive) | > 100 µM (inactive) | > 100 µM (inactive) | > 100 µM (inactive) | > 100 µM (inactive) | > 100 µM (inactive) | > 100 µM (inactive) | > 100 µM (inactive) |  |  | > 100 µM (inactive) | > 100 µM (inactive) | > 100 µM (inactive) |  | > 100 µM (inactive) | > 100 µM (inactive) | > 100 µM (inactive) | > 100 µM (inactive)
